{"source": "patent EP1370276B1", "about": "“INTERCELLULAR COMMUNICATION FACILITATING COMPOUNDS AND THEIR MEDICAL USE” (Zealand Pharma A/S, priority 2001, dated 2002)", "system": "ROS 17/2.8 cells", "assay": "Intercellular calcium waves after mechanical stimulation, ROS 17/2.8 cells", "format": "cell-based, rat", "conditions": "10^-8 M, 10 minutes, after 48 hours hypoxia 3-6% O2 (2.2 cells before)", "method": "ROS 17/2.8 cells: Cells were cultured in 100 mm dishes at 37°C with 5% CO2 and medium change every 2-3 days. ROS medium (all reagents obtained from Life Technologies): MEM (Cat.No. 31095) supplemented with 10% heat-inactivated calf serum (Cat.No. 16170), 1% NEAA (Cat.No. 11140), 1% Sodium Pyruvate (Cat.No. 11360), 1% L-Glutamine (Cat.No. 25030) and 0.1% Penicillin/Streptomycin (Cat.No. 15140). For video imaging experiments, cells were plated on coverslips at 2-3×10^5 cells/coverslip and cultured for 2-3 days before use.\nThe cells cultured on coverslips were loaded with 5 µM fura-2-AM (Molecular Probes, Cat.No. F-1221), for 30 minutes at 37°C, and incubated in fresh medium for 20 minutes. Coverslips were then affixed to a PDMI-2 culture chamber (Medical Systems Corp.), maintained at 37°C with superfused CO2, on a Zeiss Axiovert microscope. Intercellular calcium waves were induced by mechanical stimulation of a single cell using a borosilicate glass micro pipette affixed to an Eppendorf 5171 micromanipulator. Imaging was performed using a MetaMorph imaging system (Universal Imaging). The excitation light (340 and 380 nm) was provided by a monochromator (T.I.L.L. Photonics GmbH). Images were acquired with an intensified CCD camera (Dage MTI) and digitized with a Matrox MVP image processing board.", "data": [{"substance": "Ac-D-Tyr-D-Pro-D-4Hyp-Gly-D-Ala-Gly-NH2 [Compound 2]", "values": [{"measurement": "average number of cells in the calcium wave", "value": 5.4, "unit": "cells"}]}]}
